Results as given in patent US20250177396A1, “POLO-LIKE KINASE 4 (PLK4) INHIBITORS, PHARMACEUTICAL COMPOSITIONS, METHODS OF PREPARATION AND USES THEREOF” (Repare Therapeutics Inc., priority 2022, published 2025).

Each molecule was assayed against T1, PLK4 (Homo sapiens, UniProt O00444) (assay: PLK4 NanoBRET target engagement assay). Details: HEK293 T cells transfected with PLK4 NanoLuc fusion vector; K-5 tracer; 2 hrs incubation.
T1 construct: expressed in transfected cells; host or cells: HEK293 T cells (ATCC CRL-3216)
T1 sequence (O00444 1-970): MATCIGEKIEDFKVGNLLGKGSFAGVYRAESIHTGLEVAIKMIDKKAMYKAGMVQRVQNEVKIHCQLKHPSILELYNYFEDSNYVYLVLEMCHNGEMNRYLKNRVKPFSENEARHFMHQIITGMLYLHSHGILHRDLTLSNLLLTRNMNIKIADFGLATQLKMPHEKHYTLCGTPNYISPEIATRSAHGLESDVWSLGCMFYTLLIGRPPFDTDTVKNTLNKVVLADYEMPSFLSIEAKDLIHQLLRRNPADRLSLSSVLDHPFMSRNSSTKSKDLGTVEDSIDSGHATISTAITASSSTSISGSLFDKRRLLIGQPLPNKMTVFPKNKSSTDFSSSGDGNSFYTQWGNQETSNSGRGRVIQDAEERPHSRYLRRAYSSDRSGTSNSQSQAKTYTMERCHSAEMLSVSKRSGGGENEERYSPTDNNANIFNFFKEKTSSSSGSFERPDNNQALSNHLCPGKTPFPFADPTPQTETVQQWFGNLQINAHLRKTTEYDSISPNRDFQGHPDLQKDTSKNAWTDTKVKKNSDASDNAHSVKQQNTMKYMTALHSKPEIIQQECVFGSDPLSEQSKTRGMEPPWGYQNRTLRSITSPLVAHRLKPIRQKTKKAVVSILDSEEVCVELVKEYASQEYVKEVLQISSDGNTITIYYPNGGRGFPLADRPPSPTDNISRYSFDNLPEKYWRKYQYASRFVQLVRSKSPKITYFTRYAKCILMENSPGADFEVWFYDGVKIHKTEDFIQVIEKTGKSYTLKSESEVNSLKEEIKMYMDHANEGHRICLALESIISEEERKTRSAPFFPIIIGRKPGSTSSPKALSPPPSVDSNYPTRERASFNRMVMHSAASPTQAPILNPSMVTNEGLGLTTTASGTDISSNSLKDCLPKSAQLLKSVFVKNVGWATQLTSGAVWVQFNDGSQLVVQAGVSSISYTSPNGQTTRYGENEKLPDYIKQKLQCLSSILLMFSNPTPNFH
Format: binding
In short: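 HEK293T cells transiently expressing PLK4-NanoLuc, plated at 17000 cells/well with K-5 tracer and compound, incubated 2 h at 37 °C/5% CO2. After substrate/inhibitor mix, 610/450 nm emission ratio ×1000 gave mBRET; IC50 from 4-parameter fit.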

Row | Compound | IC50 [nM]
1 | Cc1cc(Nc2nc(N(C)c3c(F)cc(S(C)(=O)=O)cc3F)nc(-c3cn(CCS(C)(=O)=O)nc3C)c2C2CC2)n[nH]1 [Compound 226] | 6
2 | Cc1cc(Nc2nc(N(C)c3c(F)cc(S(C)(=O)=O)cc3F)nc(-c3cnn(CCS(C)(=O)=O)c3C)c2C2CC2)n[nH]1 [Compound 227] | 5
3 | CN(c1nc(Nc2cc(C3CC3)[nH]n2)c(C2CC2)c(-c2cn(C)cn2)n1)c1c(F)cc(S(C)(=O)=O)cc1F [Compound 228, 5-cyclopropyl-N^4-(5-cyclopropyl-1H-pyrazol-3-yl)-N^2-(2,6-difluoro-4-(methylsulfonyl)phenyl)-N^2-methyl-6-(1-methyl-1H-imidazol-4-yl)pyrimidine-2,4-diamine] | 3
4 | Cc1cc(Nc2nc(N(C)c3c(F)cc(S(C)(=O)=O)cc3F)nc(-c3cn(CCF)c(C)n3)c2C2CC2)n[nH]1 [Compound 229] | 3
5 | Cc1cc(Nc2nc(N(C)c3cc(F)c(S(C)(=O)=O)cc3F)nc(-c3ccn(CCO)n3)c2C2CC2)n[nH]1 [Compound 230] | 26
6 | Cc1cc(Nc2nc(N(C)c3c(F)cc(S(C)(=O)=O)cc3F)nc(-c3cnn(C)c3C(N)=O)c2C2CC2)n[nH]1 [Compound 231] | 4
7 | Cc1cc(Nc2nc(N(C)c3c(F)cc(S(C)(=O)=O)cc3F)nc(N3CC(n4cccn4)C3)c2C2CC2)n[nH]1 [Compound 233] | 45
8 | Cc1cc(Nc2nc(N(C)c3c(F)cc(S(C)(=O)=O)cc3F)nc(-c3cn4c(n3)C(O)CC4)c2C2CC2)n[nH]1 (centres unmarked) [Compound 234] | 49
9 | Cc1cc(Nc2nc(N(C)c3c(F)cc(S(C)(=O)=O)cc3F)nc(-n3ccccc3=O)c2C2CC2)n[nH]1 [Compound 235] | 1100
10 | Cc1cc(Nc2nc(N(C)c3c(F)cc(S(C)(=O)=O)cc3F)nc(N3CC(n4ccnc4)C3)c2C2CC2)n[nH]1 [Compound 236] | 87
11 | [2H]C([2H])([2H])OCc1nc(-c2nc(N(C)c3c(F)cc(S(C)(=O)=O)cc3F)nc(Nc3cc(C)[nH]n3)c2C2CC2)cn1C [Compound 237] | 5
12 | Cc1cc(Nc2nc(N(CCO)c3c(F)cc(S(C)(=O)=O)cc3F)nc(-c3cn(C)cn3)c2C2CC2)n[nH]1 [Compound 238] | 34
13 | Cc1cc(Nc2nc(N(C)c3c(F)cc(S(C)(=O)=O)cc3F)nc(-c3cc4n(n3)CCOC4)c2C2CC2)n[nH]1 [Compound 240] | 4
14 | Cc1cc(Nc2nc(N(C)c3c(F)cc(S(C)(=O)=O)cc3F)nc(-c3cn(C4CC4)c(C)n3)c2C2CC2)n[nH]1 [Compound 241] | 4
15 | Cc1cc(Nc2nc(N(C)c3cc(F)c(S(C)(=O)=O)cc3F)nc(-c3cn(C4CC4)c(C)n3)c2C2CC2)n[nH]1 [Compound 242] | 5
16 | Cc1cc(Nc2nc(N(C)c3cc(F)c(S(C)(=O)=O)cc3F)nc(-c3cc4n(n3)CCOC4)c2C2CC2)n[nH]1 [Compound 243] | 16
17 | COC(C)c1nc(-c2nc(N(C)c3c(F)cc(S(C)(=O)=O)cc3F)nc(Nc3cc(C)[nH]n3)c2C2CC2)cn1C (centres unmarked) [Compound 244] | 10
18 | Cc1cc(Nc2nc(N(C)c3c(F)cc(S(C)(=O)=O)cc3F)nc(-c3cc4n(C)c(=O)ccn4n3)c2C2CC2)n[nH]1 [Compound 245] | 5
19 | CCN(c1nc(Nc2cc(C)[nH]n2)c(C2CC2)c(-c2cn(C)cn2)n1)c1cc(F)c(S(C)(=O)=O)cc1F [Compound 246] | 20
20 | Cc1cc(Nc2nc(N(C)c3cc(F)c(S(C)(=O)=O)cc3F)nc(-c3cnn(C)c3C(N)=O)c2C2CC2)n[nH]1 [Compound 248] | 33
21 | COCc1c(-c2nc(N(C)c3c(F)cc(S(C)(=O)=O)cc3F)nc(Nc3cc(C)[nH]n3)c2C2CC2)cnn1C [Compound 249] | 2
22 | Cc1cc(Nc2nc(N(C)c3c(F)cc(S(C)(=O)=O)cc3F)nc(N3CCn4nccc4C3)c2C2CC2)n[nH]1 [Compound 250] | 21
23 | Cc1cc(Nc2nc(N(C)c3c(F)cc(S(C)(=O)=O)cc3F)nc(-c3cn(C)nc3C(N)=O)c2C2CC2)n[nH]1 [Compound 251] | 310
24 | Cc1cc(Nc2nc(N(C)c3c(F)cc(S(C)(=O)=O)cc3F)nc(-c3cn(C)nc3C(=O)N(C)C)c2C2CC2)n[nH]1 [Compound 252] | 48
25 | Cc1cc(Nc2nc(N(C)c3c(F)cc(S(C)(=O)=O)cc3F)nc(-c3cnn([C@H]4C[C@H](O)C4)c3)c2C2CC2)n[nH]1 [Compound 253] | 7

Row | Compound | IC50 [nM]
26 | Cc1cc(Nc2nc(N(C)c3c(F)cc(S(C)(=O)=O)cc3F)nc(-c3cnn([C@H]4C[C@@H](O)C4)c3)c2C2CC2)n[nH]1 [Compound 254] | 4
27 | COC1CCc2ncc(-c3nc(N(C)c4c(F)cc(S(C)(=O)=O)cc4F)nc(Nc4cc(C)[nH]n4)c3C3CC3)n2C1 (centres unmarked) [Compound 255] | 2
28 | CN(c1nc(Nc2cc(C3CC3)[nH]n2)c(C2CC2)c(-c2cnn(C)c2C(N)=O)n1)c1c(F)cc(S(C)(=O)=O)cc1F [Compound 256] | 4
29 | Cc1cc(Nc2nc(N(C)c3c(F)cc(S(C)(=O)=O)cc3F)nc(-c3cn(C4CC(O)C4)cn3)c2C2CC2)n[nH]1 (centres unmarked) [Compound 257] | 33
30 | CCc1cc(Nc2nc(N(C)c3c(F)cc(S(C)(=O)=O)cc3F)nc(-c3cnn(C)c3)c2C2CC2)n[nH]1 [Compound 258] | 5
31 | Cc1cc(Nc2nc(N(C)c3c(F)cc(S(C)(=O)=O)cc3F)nc(-c3cn(CCOC(F)(F)F)c(C)n3)c2C2CC2)n[nH]1 [Compound 259] | 7
32 | Cc1cc(Nc2nc(N(C)c3c(F)cc(S(C)(=O)=O)cc3F)nc(-c3cnn(C)c3C(=O)N(C)C)c2C2CC2)n[nH]1 [Compound 260] | 5
33 | CNC(=O)c1c(-c2nc(N(C)c3c(F)cc(S(C)(=O)=O)cc3F)nc(Nc3cc(C)[nH]n3)c2C2CC2)cnn1C [Compound 261] | 8
34 | Cc1cc(Nc2nc(N(C)c3c(F)cc(C(C)(C)O)cc3F)nc(-c3cn(C)cn3)c2C2CC2)n[nH]1 [Compound 262] | 18
35 | Cc1cc(Nc2nc(N(C)c3c(F)cc(S(C)(=O)=O)cc3F)nc(-c3cnn(C)c3C(=O)N3CCC3)c2C2CC2)n[nH]1 [Compound 263] | 9
36 | Cc1cc(Nc2nc(N(C)c3c(F)cc(S(C)(=O)=O)cc3F)nc(-c3cnn(C)c3C(=O)N3CC(F)(F)C3)c2C2CC2)n[nH]1 [Compound 264] | 25
37 | CN(c1nc(Nc2cc(C3CC3)[nH]n2)c(C2CC2)c(-c2ccn(CCO)n2)n1)c1c(F)cc(S(C)(=O)=O)cc1F [Compound 265] | 5
38 | Cc1cc(Nc2nc(N(C)c3c(F)cc(S(C)(=O)=O)cc3F)nc(-c3cnc4cccnn34)c2C2CC2)n[nH]1 [Compound 267] | 6
39 | Cc1cc(Nc2nc(N(C)c3c(F)cc(S(C)(=O)=O)cc3F)nc(N3CC4(C3)CC(C)(O)C4)c2C2CC2)n[nH]1 [Compound 268] | 48
40 | Cc1cc(Nc2nc(N(C)c3c(F)cc(S(C)(=O)=O)cc3F)nc(N3CCc4c(ncn4C)C3)c2C2CC2)n[nH]1 [Compound 269] | 14
41 | Cc1cc(Nc2nc(N(C)c3c(F)cc(S(C)(=O)=O)cc3F)nc(N3Cc4cnn(C)c4C3)c2C2CC2)n[nH]1 [Compound 271] | 60
42 | COCc1nc(-c2nc(N(C)c3c(F)cc(S(C)(=O)=O)cc3F)nc(Nc3cc(C4CC4)[nH]n3)c2C2CC2)cn1C [Compound 272] | 3
43 | CN(c1nc(Nc2cc(C3CC3)[nH]n2)c(C2CC2)c(-c2cn3c(n2)COCC3)n1)c1c(F)cc(S(C)(=O)=O)cc1F [Compound 273] | 2
44 | Cc1cc(Nc2nc(N(C)c3c(F)cc(S(C)(=O)=O)cc3F)nc(-c3ncn(C)c3C(=O)N(C)C)c2C2CC2)n[nH]1 [Compound 274] | 3100
45 | COCCn1cc(-c2nc(N(C)c3c(F)cc(S(C)(=O)=O)cc3F)nc(Nc3cc(C4CC4)[nH]n3)c2C2CC2)c(C)n1 [Compound 276] | 4
46 | COCCn1ncc(-c2nc(N(C)c3c(F)cc(S(C)(=O)=O)cc3F)nc(Nc3cc(C4CC4)[nH]n3)c2C2CC2)c1C [Compound 277] | 3
47 | CN(c1nc(Nc2cc(C(F)(F)F)[nH]n2)c(C2CC2)c(-c2cnn(C)c2)n1)c1c(F)cc(S(C)(=O)=O)cc1F [Compound 278] | 60
48 | CN(C)C(=O)c1c(-c2nc(N(C)c3c(F)cc(S(C)(=O)=O)cc3F)nc(Nc3cc(C4CC4)[nH]n3)c2C2CC2)cnn1C [Compound 280] | 1
49 | Cc1cc(Nc2nc(N(C)c3c(F)cc(S(C)(=O)=O)cc3F)nc(-c3nn(C)cc3C(N)=O)c2C2CC2)n[nH]1 [Compound 281] | 340
50 | Cc1cc(Nc2nc(N(C)c3c(F)cc(S(C)(=O)=O)cc3F)nc(N3CCc4ncn(C)c4C3)c2C2CC2)n[nH]1 [Compound 282] | 6
